# “Also recorded” adds a separate entry of the source. Marks after values point to notes of the source that are not given here.
# What was measured:
# BSEP [1] = biological target: T1, BSEP (Homo sapiens, UniProt O95342); assay: ATP-dependent uptake of test article by BSEP-transfected Sf9 membrane vesicles (substrate assessment); conditions: for substrate of BSEP (conclusion in words): criteria ≥2-fold ATP-dependent uptake and >50% inhibition by selective inhibitor; for remaining BSEP activity after cyclosporine A treatment: test article 1 and 10 μM + cyclosporine A 20 μM; for inhibition of test article uptake by cyclosporine A: cyclosporine A 20 μM
# BSEP [2] = biological target: T1, BSEP; assay: Inhibition of 3H-taurocholic acid uptake by BSEP membrane vesicles (inhibitor assessment); conditions: for inhibitor of BSEP (conclusion in words): criterion >25% concentration-dependent inhibition of probe substrate uptake; for ATP-Dependent Uptake Activity of 3H-taurocholic acid / Signal-to-Noise Ratio / Uptake Activity of 3H-taurocholic acid, Mg-AMP / Uptake Activity of 3H-taurocholic acid, Mg-ATP: 3H-taurocholic acid 1 μM
# [3] = Solubility in stock solvent and assay buffers
# BSEP [4] = biological target: T1, BSEP; assay: in vitro
# [5] = test article 1 μM + cyclosporine 20 μM
# [6] = test article 10 μM + cyclosporine 20 μM
# [7] = test article 10 μM, listed as UA
# [8] = assay buffers, aqueous buffer, kinetic from dmso stock
# [9] = methanol, organic solvent or mixture
# T1 sequence (O95342 whole entry): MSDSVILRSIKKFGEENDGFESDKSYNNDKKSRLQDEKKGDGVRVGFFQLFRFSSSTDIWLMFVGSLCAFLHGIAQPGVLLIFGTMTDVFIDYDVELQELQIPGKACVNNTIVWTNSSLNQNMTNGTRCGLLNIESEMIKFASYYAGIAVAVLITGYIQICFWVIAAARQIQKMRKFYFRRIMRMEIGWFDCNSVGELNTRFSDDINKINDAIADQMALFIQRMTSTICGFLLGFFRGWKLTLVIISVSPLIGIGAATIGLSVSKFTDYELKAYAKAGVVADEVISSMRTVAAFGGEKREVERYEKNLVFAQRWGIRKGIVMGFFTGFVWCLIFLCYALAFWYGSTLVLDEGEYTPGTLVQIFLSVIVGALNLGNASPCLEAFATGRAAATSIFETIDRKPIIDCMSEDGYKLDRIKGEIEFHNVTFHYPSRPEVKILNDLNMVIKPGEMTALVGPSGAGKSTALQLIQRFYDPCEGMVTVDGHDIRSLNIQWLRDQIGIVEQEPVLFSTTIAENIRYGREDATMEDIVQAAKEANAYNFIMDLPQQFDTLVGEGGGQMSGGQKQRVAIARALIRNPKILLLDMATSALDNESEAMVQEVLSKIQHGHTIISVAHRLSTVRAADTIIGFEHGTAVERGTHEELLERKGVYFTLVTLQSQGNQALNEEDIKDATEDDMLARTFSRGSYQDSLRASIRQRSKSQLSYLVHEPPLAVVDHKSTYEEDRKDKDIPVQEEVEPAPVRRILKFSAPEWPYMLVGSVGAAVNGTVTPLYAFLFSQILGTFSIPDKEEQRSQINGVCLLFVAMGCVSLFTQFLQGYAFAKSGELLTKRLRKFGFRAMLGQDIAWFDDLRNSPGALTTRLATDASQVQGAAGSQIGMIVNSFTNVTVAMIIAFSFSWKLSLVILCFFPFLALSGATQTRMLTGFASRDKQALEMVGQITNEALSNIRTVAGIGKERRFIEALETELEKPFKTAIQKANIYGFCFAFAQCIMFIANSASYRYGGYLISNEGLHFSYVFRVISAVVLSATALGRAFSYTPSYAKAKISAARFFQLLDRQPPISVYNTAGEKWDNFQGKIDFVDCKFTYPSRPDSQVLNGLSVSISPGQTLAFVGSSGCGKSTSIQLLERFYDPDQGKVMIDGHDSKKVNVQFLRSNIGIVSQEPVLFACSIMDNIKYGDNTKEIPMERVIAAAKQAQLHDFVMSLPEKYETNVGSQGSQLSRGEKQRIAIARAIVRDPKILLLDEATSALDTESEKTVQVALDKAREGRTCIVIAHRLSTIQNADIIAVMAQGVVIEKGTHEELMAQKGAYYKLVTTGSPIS
"solubility [3, 8] [mM]","solubility [3, 9] [mM]",SMILES,ATP-Dependent Uptake Activity of test article (BSEP [1]; test article 1 μM),"Uptake Activity of test article, Mg-AMP (BSEP [1]; test article 1 μM)","Uptake Activity of test article, Mg-ATP (BSEP [1]; test article 1 μM)","Uptake Activity of test article, Mg-AMP (BSEP [1]; [5])","Uptake Activity of test article, Mg-ATP (BSEP [1]; [5])",ATP-Dependent Uptake Activity of test article (BSEP [1]; test article 10 μM) [pmol/minute/mg protein],Signal-to-Noise Ratio (BSEP [1]; test article 10 μM),"Uptake Activity of test article, Mg-AMP (BSEP [1]; test article 10 μM)","Uptake Activity of test article, Mg-ATP (BSEP [1]; test article 10 μM)","Uptake Activity of test article, Mg-AMP (BSEP [1]; [6])","Uptake Activity of test article, Mg-ATP (BSEP [1]; [6])",ATP-dependent BSEP uptake activity relative to AMP uptake (BSEP [1]; test article 1 and 10 μM) [fold],substrate of BSEP (conclusion in words) (BSEP [1]; test article 1 and 10 μM),inhibitor of BSEP (conclusion in words) (BSEP [2]),ATP-Dependent Uptake Activity of 3H-taurocholic acid (BSEP [2]; inhibitor 50 μM) [pmol/minute/mg protein],Signal-to-Noise Ratio (BSEP [2]; inhibitor 50 μM),"Uptake Activity of 3H-taurocholic acid, Mg-AMP (BSEP [2]; inhibitor 50 μM) [pmol/minute/mg protein]",potency estimated from few doses at 30 min (BSEP [4]) [µM],further results
0.5,100,C[C@H](CCC(=O)O)[C@H]1CC[C@H]2[C@@H]3[C@@H](O)C[C@@H]4C[C@H](O)CC[C@]4(C)[C@H]3CC[C@]12C [Ursodeoxycholic acid],could not be detected,BLQ,BLQ,BLQ,BLQ,0.792,1.26,3.08^b pmol/minute/mg protein,3.87^b pmol/minute/mg protein,BLQ,5.61^b pmol/minute/mg protein,< 2,not a substrate,inhibited uptake of the probe substrate,6.04,9.66,0.697,< 500,"ATP-Dependent Uptake Activity of test article (BSEP [1]; [7]): 0.792^b pmol/minute/mg protein; Signal-to-Noise Ratio (BSEP [1]; [7]): 1.26^b; substrate of BSEP (conclusion in words) (BSEP [1]; test article 1 and 10 μM, listed as ursodeoxycholic acid): not a substrate of BSEP; inhibitor of BSEP (conclusion in words) (BSEP [2]; listed as ursodeoxycholic acid): inhibitors of BSEP; Uptake Activity of 3H-taurocholic acid, Mg-ATP (BSEP [2]; inhibitor 50 μM): 6.73 pmol/minute/mg protein; ATP-Dependent Uptake Activity of 3H-taurocholic acid (BSEP [2]; inhibitor 500 μM): 0.425 pmol/minute/mg protein; Signal-to-Noise Ratio (BSEP [2]; inhibitor 500 μM): 1.95; Uptake Activity of 3H-taurocholic acid, Mg-AMP (BSEP [2]; inhibitor 500 μM): 0.449 pmol/minute/mg protein; Uptake Activity of 3H-taurocholic acid, Mg-ATP (BSEP [2]; inhibitor 500 μM): 0.873 pmol/minute/mg protein; IC50 at 30 min (BSEP [4]): < 500 µM; activity at 30 min, 50 μM (BSEP [4]): 64%; activity at 30 min, 500 μM (BSEP [4]): 4.5%"
0.25,50,O=C(O)CCCc1ccccc1 [Sodium phenylbutyrate],–,BLQ,BLQ,–,–,–,–,–,–,BLQ,BLQ,–,not a substrate of BSEP,did not meet the criteria for identification as an inhibitor; also recorded: did not inhibit,–,–,–,–,"uptake of test article by BSEP vesicles (BSEP [1]; test article 1 and 10 μM): not detected; substrate of BSEP (conclusion in words) (BSEP [1]; test article 1 and 10 μM, listed as sodium phenylbutyrate): not identified as a substrate; ATP-Dependent Uptake Activity of 3H-taurocholic acid (BSEP [2]; inhibitor 25 μM): 19.3 pmol/minute/mg protein; Signal-to-Noise Ratio (BSEP [2]; inhibitor 25 μM): 35.9; Uptake Activity of 3H-taurocholic acid, Mg-AMP (BSEP [2]; inhibitor 25 μM): 0.554 pmol/minute/mg protein; Uptake Activity of 3H-taurocholic acid, Mg-ATP (BSEP [2]; inhibitor 25 μM): 19.9 pmol/minute/mg protein; ATP-Dependent Uptake Activity of 3H-taurocholic acid (BSEP [2]; inhibitor 250 μM): 20.6 pmol/minute/mg protein; Signal-to-Noise Ratio (BSEP [2]; inhibitor 250 μM): 31.6; Uptake Activity of 3H-taurocholic acid, Mg-AMP (BSEP [2]; inhibitor 250 μM): 0.673 pmol/minute/mg protein; Uptake Activity of 3H-taurocholic acid, Mg-ATP (BSEP [2]; inhibitor 250 μM): 21.3 pmol/minute/mg protein; activity at 30 min, 25 μM (BSEP [4]): 77.2%; activity at 30 min, 250 μM (BSEP [4]): 82.4%"
0.05,10,C[C@H](CCC(=O)NCCS(=O)(=O)O)[C@H]1CC[C@H]2[C@@H]3[C@@H](O)C[C@@H]4C[C@H](O)CC[C@]4(C)[C@H]3CC[C@]12C [Tauroursodeoxycholic acid],14.4 pmol/minute/mg protein,4.90^c pmol/minute/mg protein,19.3^b pmol/minute/mg protein,BLQ,BLQ,22.4,10.6,2.33 pmol/minute/mg protein,24.7 pmol/minute/mg protein,3.98 pmol/minute/mg protein,6.79 pmol/minute/mg protein,> 2,a substrate of BSEP transporters,strongly inhibited; also recorded: inhibited,0.747,2.34,0.556,< 5,"Signal-to-Noise Ratio (BSEP [1]; test article 1 μM): 3.94; ATP-Dependent Uptake Activity of test article (BSEP [1]; [6]): 2.81 pmol/minute/mg protein; Signal-to-Noise Ratio (BSEP [1]; [6]): 1.71; remaining BSEP activity after cyclosporine A treatment (BSEP [1]): ≤ 12.6%; substrate of BSEP (conclusion in words) (BSEP [1]; test article 1 and 10 μM, listed as tauroursodeoxycholic acid): a substrate of BSEP; inhibition of test article uptake by cyclosporine A (BSEP [1]; test article 1 and 10 μM): inhibited by cyclosporine A; inhibitor of BSEP (conclusion in words) (BSEP [2]; listed as TURSO): inhibitors of BSEP; ATP-Dependent Uptake Activity of 3H-taurocholic acid (BSEP [2]; inhibitor 5 μM): 6.71 pmol/minute/mg protein; Signal-to-Noise Ratio (BSEP [2]; inhibitor 5 μM): 10.1^b; Uptake Activity of 3H-taurocholic acid, Mg-AMP (BSEP [2]; inhibitor 5 μM): 0.737 pmol/minute/mg protein; Uptake Activity of 3H-taurocholic acid, Mg-ATP (BSEP [2]; inhibitor 5 μM): 7.45^b pmol/minute/mg protein; Uptake Activity of 3H-taurocholic acid, Mg-ATP (BSEP [2]; inhibitor 50 μM): 1.30 pmol/minute/mg protein; activity at 30 min, 5 μM (BSEP [4]): 46.2%; activity at 30 min, 50 μM (BSEP [4]): 5.14%"

SMILES,"solubility [3, 8] [mM]","solubility [3, 9] [mM]",ATP-Dependent Uptake Activity of test article (BSEP [1]; test article 1 μM),"Uptake Activity of test article, Mg-AMP (BSEP [1]; test article 1 μM)","Uptake Activity of test article, Mg-ATP (BSEP [1]; test article 1 μM)","Uptake Activity of test article, Mg-AMP (BSEP [1]; [5])","Uptake Activity of test article, Mg-ATP (BSEP [1]; [5])",ATP-Dependent Uptake Activity of test article (BSEP [1]; test article 10 μM) [pmol/minute/mg protein],Signal-to-Noise Ratio (BSEP [1]; test article 10 μM),"Uptake Activity of test article, Mg-AMP (BSEP [1]; test article 10 μM)","Uptake Activity of test article, Mg-ATP (BSEP [1]; test article 10 μM)","Uptake Activity of test article, Mg-AMP (BSEP [1]; [6])","Uptake Activity of test article, Mg-ATP (BSEP [1]; [6])",ATP-dependent BSEP uptake activity relative to AMP uptake (BSEP [1]; test article 1 and 10 μM) [fold],substrate of BSEP (conclusion in words) (BSEP [1]; test article 1 and 10 μM),inhibitor of BSEP (conclusion in words) (BSEP [2]),ATP-Dependent Uptake Activity of 3H-taurocholic acid (BSEP [2]; inhibitor 50 μM) [pmol/minute/mg protein],Signal-to-Noise Ratio (BSEP [2]; inhibitor 50 μM),"Uptake Activity of 3H-taurocholic acid, Mg-AMP (BSEP [2]; inhibitor 50 μM) [pmol/minute/mg protein]",potency estimated from few doses at 30 min (BSEP [4]) [µM],further results
C[C@H](CCC(=O)NCC(=O)O)[C@H]1CC[C@H]2[C@@H]3[C@@H](O)C[C@@H]4C[C@H](O)CC[C@]4(C)[C@H]3CC[C@]12C [Glycoursodeoxycholic acid],0.1,50,11.2 pmol/minute/mg protein,BLQ,11.2 pmol/minute/mg protein,BLQ,BLQ,14.2,–,BLQ,14.2 pmol/minute/mg protein,6.93 pmol/minute/mg protein,BLQ,> 2,a substrate of BSEP transporters,strongly inhibited; also recorded: inhibited,–,–,–,< 10,"ATP-Dependent Uptake Activity of test article (BSEP [1]; [6]): 0.00^b pmol/minute/mg protein; remaining BSEP activity after cyclosporine A treatment (BSEP [1]): No remaining BSEP activity; substrate of BSEP (conclusion in words) (BSEP [1]; test article 1 and 10 μM, listed as glycoursodeoxycholic acid): a substrate of BSEP; inhibition of test article uptake by cyclosporine A (BSEP [1]; test article 1 and 10 μM): inhibited by cyclosporine A; inhibitor of BSEP (conclusion in words) (BSEP [2]; listed as glycoursodeoxycholic acid): inhibitors of BSEP; ATP-Dependent Uptake Activity of 3H-taurocholic acid (BSEP [2]; inhibitor 10 μM): 8.56 pmol/minute/mg protein; Signal-to-Noise Ratio (BSEP [2]; inhibitor 10 μM): 11.9; Uptake Activity of 3H-taurocholic acid, Mg-AMP (BSEP [2]; inhibitor 10 μM): 0.788 pmol/minute/mg protein; Uptake Activity of 3H-taurocholic acid, Mg-ATP (BSEP [2]; inhibitor 10 μM): 9.35 pmol/minute/mg protein; ATP-Dependent Uptake Activity of 3H-taurocholic acid (BSEP [2]; inhibitor 100 μM): 1.84 pmol/minute/mg protein; Signal-to-Noise Ratio (BSEP [2]; inhibitor 100 μM): 2.89; Uptake Activity of 3H-taurocholic acid, Mg-AMP (BSEP [2]; inhibitor 100 μM): 0.974 pmol/minute/mg protein; Uptake Activity of 3H-taurocholic acid, Mg-ATP (BSEP [2]; inhibitor 100 μM): 2.81 pmol/minute/mg protein; activity at 30 min, 10 μM (BSEP [4]): 48.3%; activity at 30 min, 100 μM (BSEP [4]): 10.4%"

# Source: patent US12138272B2, “Methods and compositions for treating amyotrophic lateral sclerosis” (Amylyx Pharmaceuticals, Inc., priority 2022, dated 2024)
